According to patent publication US11820762B2, “Compounds as potential therapeutic agents targeting various neurodegenerative diseases” (The Hong Kong University of Science and Technology, priority 2020, dated 2023):

How the values were obtained:
Tau-R3 = target: T1, Tau-R3 (Homo sapiens, UniProt P10636); assay: Thioflavin T (ThT) fluorescent tau-R3 aggregation assay; assay type: biochemical; conditions: 20 μM Tau-R3, 10 μM heparin, read-out: IC50 of Tau-R3 aggregation inhibition (converted)
T1 construct: Tau-R3 protein was synthesized and purchased from ChinaPeptides Co., Ltd; purchased ChinaPeptides Co., Ltd; host or cells: chemical synthesis
T1 sequence (P10636 623-653 limits assumed): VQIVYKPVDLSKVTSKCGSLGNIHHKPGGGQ
Method: Tau-R3 protein was synthesized and purchased from ChinaPeptides Co., Ltd. ThT (ab120751, 1 mM) solution was freshly prepared in 50 mM Tris-HCl buffer (pH 7.4) and passed through a 0.45 μm pore size filter to remove insoluble particles before use. Tau-R3 (20 μM) was incubated with 20 μM ThT and 10 μM heparin in the presence or absence of cA, cB and cC. Samples in 200 μL were added to 96-well plates and incubated at 37° C. for 24-48 hours. ThT fluorescence intensity was recorded using a microplate reader with 440/480 nm excitation/emission filters at different time points. Non-linear regression analysis was performed to fit the boltzmann sigmoidal.
In the C9orf72 ALS/FTD, there is a strong genetic association between the microtubule-binding protein, tau and the G4C2 HRE. […] The co-expression of Tau and G4C2 repeats produces a synergistic deterioration of the neurodegeneration phenotype of ALS/FTD^46. Considering the tight correlation of Tau aggregation with the ALS/FTD pathogenesis, we tested our compounds in a non-cell-based Tau-R3 aggregation inhibition assay. […] Moreover, we conducted high magnification TEM imaging to characterize the morphological changes of Tau-R3 fibrils with cA, cB and cC treatments. […] Furthermore, the misfolding of tau protein into filaments in neurons of the central nervous system can be found in various neurodegenerative diseases, such as Alzheimer's disease et al. Therefore, the inhibition on tau aggregation represented a potential of cA and its derivatives in targeting multiple other neurodegenerative diseases more than ALS.

[1] = system: G4C2 RNA foci in (G4C2)29 overexpressed Neuro2a cells; assay: RNA fluorescent in situ hybridisation, RNA foci numbers; assay type: cell-based; parameters: CAGG (control probe) RNA foci numbers: dose or concentration left out as unconfirmed; conditions: for G4C2 RNA foci numbers in cells: 1 g/ml treatment for 2 days; for CAGG (control probe) RNA foci numbers: treatment for 2 days
Method: Neuro2a cells planted on coverslips were transfected with pHR-Tre3G-29xGGGGCC-12xMS2 plasmid (#99149), incubated for 2-3 days and then fixed with 4% paraformaldehyde for 15 min at room temperature. Cells were permeabilised with 0.1% TritonX-100 in PBS for 10 min before hybridisation. Target probe ([…]) (SEQ ID NO: 1) with a 5′-Cy3 and control probe ([…]) (SEQ ID NO: 2) with a 5′-Cy5 were added to the hybridisation solution (0.9M NaCl, 0.02M Tris-HCl, 0.01% SDS, 20% formamide). Cells were then incubated in the mixed solution at 46° C. for 3 h. Cells were washed three times in washing solution (0.02M Tris-HCl, 0.001% SDS, 5 mM EDTA) at 48° C., 15 min each time. Then, cells were stained with primary antibodies (Anti-DNA G-quadruplex (G4) antibody (Cat. No. MABE1126) or Anti-hnRNP H antibody (ab10374)) at 1:500 dilution and incubated at 4° C. overnight. In the next day, cells were washed three times with PBS (10 min each time), and then incubated with secondary antibodies (Alexa 488 anti-mouse for G4 or Alex 488 anti-rabbit for hnRNP H) at 1:500 dilution for 1 h at room temperature. Superfluous secondary antibodies were washed away with PBS for three times (10 min each time). Then cells were incubated with DAPI at 1:5000 dilution for 5 mins and washed with PBS once. Finally, cells on slides were air-dried, mounted in Hydromount medium and analysed by confocal microscopy (Leica, SP8).
Firstly, we confirmed that RNA foci were specifically observed in the (G4C2)29 (SEQ ID NO: 6) overexpressed Neuro2a cells (FIG. 8C).

RRM domain of hnRNP H = target: T2, RRM domain of hnRNP H (Homo sapiens, UniProt P31943); assay: 1H-15N HSQC NMR titration of hnRNP H RRM domain; assay type: binding; conditions: ratios 1:5 and 1:10
T2 construct: HSQC spectra of RRM1/2 of hnRNP H; hexahistidine (cleaved yes); made in house; host or cells: Escherichia coli BL21(DE3), pET-28a(+)
T2 sequence (P31943 1-194 limits assumed): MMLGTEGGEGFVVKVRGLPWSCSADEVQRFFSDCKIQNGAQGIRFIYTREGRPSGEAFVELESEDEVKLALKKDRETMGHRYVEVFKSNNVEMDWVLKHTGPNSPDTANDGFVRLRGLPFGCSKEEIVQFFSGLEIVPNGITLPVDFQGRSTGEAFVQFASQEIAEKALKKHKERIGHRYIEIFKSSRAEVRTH
Method: The coding sequence of the RRM domain of hnRNP H/F, or human Orc6 was inserted into the expression vector pET-28a(+) (Novagen). Protein was expressed in Escherichia coli BL21(DE3) at 37° C. for 5 hours. Cell lysates were subject to affinity purification with nickel-nitrilotriacetic acid resin (Qiagen) followed by cleavage of hexahistidine tag with Protease 3C enzyme. Products were further purified on a Superdex 75 column (GE Healthcare). For NMR studies, uniformly ^15N labeled protein was expressed and purified as described above, except for cells grown in M9 medium containing 100% ^15N enriched ammonium chloride (Cambridge Isotopes) and d-glucose.
Titration experiments were performed by recording a series of 2D ^15N-HSQC spectra on uniformly ^15N-labeled RRM domain (˜0.1 mM) in the presence of different amounts of DNA/RNA or compounds at 25° C. Protein samples and stock solutions of DNA/RNA were all prepared in 20 mM potassium phosphate buffer and 70 mM KCl, pH 7.0, 10% D2O. All compounds were dissolved in isotope-labeled d6-DMSO (Sigma-Aldrich) at about 50 mM concentration, working as stock solutions. To avoid chemical shift changes of protein samples resulted from d6-DMSO addition, 10 μL d6-DMSO was added into 500 μL of 0.1 mM protein solution in the NMR buffer (20 mM potassium phosphate buffer and 70 mM KCl, pH 7.0, 10% D2O) and then the 2D HSQC was recorded as a reference.
In this scenario, specific RNA-binding proteins (RBPs), like hnRNP H, are recruited by the RNA foci, resulting in RNA processing impairment and further cytotoxicity to the central nervous system^30,36,37. Therefore, we tested the binding possibility of cA with the RRM domain of hnRNP H by NMR titration. […] Intriguingly, the DNA (G4C2)4 (SEQ ID NO: 5) G4 was also shown a potent binding affinity to the RRM domain of hnRNP H (FIG. 4C).

Compound | IC50 (Tau-R3) | G4C2 RNA foci numbers in cells [1] | CAGG (control probe) RNA foci numbers [1] | binding to RRM domain of hnRNP H by NMR titration (RRM domain of hnRNP H)
CC(=O)Cc1cc2c(c(O)c1C(=O)O)-c1c(c(O)c3oc4c(O[C@@H]5O[C@H](C(=O)O)[C@@H](O)[C@H](O)[C@H]5O)cccc4c(=O)c3c1O)CC2 [cC, chrexanthomycin C] | 5.76 µM | significantly reduced | seldomly changed | a little bit stronger than cA
COc1c2c(c(O)c3c(=O)c4cccc(O[C@@H]5OC(C(=O)O)=C[C@H](O)[C@H]5O)c4oc13)-c1c(cc(CC(C)=O)c(C(=O)O)c1O)CC2 [cB, chrexanthomycin B] | 2.05 µM |  |  | much weaker bindings
CC(=O)Cc1cc2c(c(O)c1C(=O)O)-c1c(c(O)c3oc4c(O[C@@H]5OC(C(=O)O)=C[C@H](O)[C@H]5O)cccc4c(=O)c3c1O)CC2 [cA, chrexanthomycin A] | ~0.518 µM | significantly reduced | seldomly changed | bound to the RRM domain of hnRNP H
